Legend:
Egr-1 = Egr-1 western blot in primary human lung fibroblasts; type: cell-based; conditions: TGFβ followed by E4 after 60 minutes, harvested after 24 hours
Procedure: FIG. 16. E-4 reduces fibrosis in vitro by reducing levels of the master transcription factor Egr-1 in primary human lung fibroblasts. Reduction of Egr-1 levels parallels that of collagen, SMA, and fibronectin. Lane 1: vehicle (DMSO); Lane 2: E4; Lane 3: TGFβ, Lane 4 TGFβ followed by E4 after 60 minutes. The samples were harvested after 24 hours.
E4 also promotes the degradation of ECM components via induction and activation of matrix metalloprotease (MMP-2), an enzyme that degrades several ECM molecules including fibronectin and native and denatured collagens (FIG. 14). In addition, E4 increases levels of inhibitor of differentiation (ID)-1, a transcription factor that inhibits TGF-β effects (see FIG. 15). It was determined in a Western bloat analysis that E4 reduces the levels of the master switch transcription factor, Egr-1 (see FIG. 16) in primary human lung fibroblasts, treated and harvested after 24 hours. The reduction of Egr-1 levels parallels a reduction in collagen, SMA and fibronectin. Egr-1 is known to mediate the effects of several fibrotic agents (including TGF-β and bleomycin).

[1] = system: human primary lung fibroblasts; assay: FN and Col1α1 western blot in TGF-β-treated primary lung fibroblasts; type: cell-based; conditions: normal human lung fibroblasts; TGF-β 10 ng/ml 24 h, then 5 μg/ml rE or peptide 48 h; vs TGF-β alone
Procedure: Human primary lung and skin fibroblasts were cultured. The explanted lungs of normal organ donors, patients with SSc or IPF, and clinically involved skin of SSc patients, a morphea patient and healthy donors were used for primary fibroblast culture. Approximately 2-cm pieces of peripheral lung and skin were minced and fibroblasts were cultured in Dulbecco's modified Eagle's medium (DMEM; Mediatech, Herndon, Va.) supplemented with 10% FBS, penicillin, streptomycin, and anti-mycotic agent, as previously described (Feghali et al., Arthritis Rheum 1999; 42:1451-7). All the cells were used between passages 3-6.
Cellular lysates were obtained from cultured fibroblasts as previously described (Pilewski et al., Am J Pathol 2005; 166:399-407). Briefly, 2.0×10^5 primary fibroblasts were cultured in 35-mm wells in 0.5% FBS-containing medium supplemented with 10 ng/ml of human recombinant TGF-β or PBS as vehicle control for 24 h, following which 5 μg/ml of human rE, endostatin peptides (E1-E4), or DMSO (vehicle) was added for 48 h. In some experiments, endostatin peptides were used without TGF-β stimulation. Cellular lysates were analyzed by western blot. Signals were detected following incubation with horseradish peroxidase-conjugated secondary antibody and chemiluminescence (Perkin Elmer Life Sciences, Inc., Boston, Mass.). The intensity of individual bands with expected molecular sizes was semi-quantitatively analyzed using the image/J® software available at on the internet (/rsb.info.nih.gov/ij/index.html), and normalized to individual GAPDH intensity.
To evaluate whether endostatin modulates production of ECM components in fibroblasts, FN and Col1α1 expression was examined in normal human lung fibroblasts by western blot analysis. Cells were treated with 5 µg/ml rE for 48 h with or without pre-stimulation with human TGF-β for 24 h. […] To define the functional domain of endostatin that mediates its inhibitory effect, four different peptides were synthesized corresponding to different regions of endostatin (Table 1).

mouse skin = assay: TGF-β-induced dermal fibrosis in vivo in mouse skin
Procedure: FIG. 9. E4 reverses TGF β-induced dermal fibrosis even if administered 3 days following TGF-β.
CB57BL6/J male mice were purchased from The Jackson Laboratory (Bar Harbor, Me.). Human rE (10 μg/ml) or Endostatin peptides (10 μg/ml) in combination with TGF-β (10 ng/ml), or TGF-β alone were injected intradermally on the back of mice in a total volume of 100 μl 1×PBS. Mice were injected in two different skin sites and sacrificed one week post-injection. Skin surrounding the injection site was harvested and fixed in 10% formalin prior to embedding in paraffin.
Six μm sections of paraffin-embedded human and mouse skin tissues were stained with hematoxylin and eosin (H&E). In some experiments, sections were stained with Masson trichrome which identifies collagens. Images were taken on a Nikon Eclipse 800 microscope. The thickness of the dermis was measured in 6 random fields of each section using the image/J® software. Data are shown in arbitrary units.
E4, a peptide representing the carboxy terminus of human endostatin, can attenuate fibrosis triggered by multiple fibrogenic factors. The anti-fibrotic effects of E4 can be detected whether administered concomitantly with or following the fibrogenic trigger. The efficacy of E4 was confirmed in […] pre-clinical models of fibrosis: a) bleomycin-induced dermal fibrosis in vivo in mouse skin, b) TGF-β induced dermal fibrosis in mouse skin, and c) bleomycin-induced pulmonary fibrosis. E4 peptide or a control peptide (E1; representing the amino terminal region of endostatin) were administered at the same time as TGF-β or bleomycin or 3-4 days following TGF-β or bleomycin. Mice were sacrificed one and two weeks after TGF-β-initiation of dermal fibrosis, and two and three weeks after bleomycin-induced pulmonary fibrosis. Two different modes of administration of the E4 peptide were also tested. It was confirmed that intraperitoneal and intratracheal administration was effective. The amount of E4 that was administered ws 10 μg/ml in a total volume of 100 μl for skin and IP injections and 50 μl for IT administration.

lysyl oxidase (LOX) = assay: TGFβ-induced LOX production in primary human lung fibroblasts; type: cell-based; conditions: normal lung fibroblasts passage 4, TGF-β followed 30 minutes later by E4, 48 hrs
Procedure: FIG. 13. E4 reduces fibrosis in vitro by blocking TGFβ-induced LOX production in primary human lung fibroblasts. Normal lung fibroblasts in passage 4 were treated with vehicle, E4, TGFbeta, or TGFbeta followed 30 min. later by E4. Media conditioned by the fibroblasts were analyzed using Western blot analysis after 48 hour. Lane 1: Vehicle (DMSO); Lane 2: E-4; Lane 3: TGF 3; Lane 4: TGF 3 followed by E4.
E4-mediated reduction of LOX was detected also was detected in vitro. Normal lung fibroblasts in passage 4 were treated with vehicle, E4, TGFβ, or TGF-β followed 30 minutes later by E4 (FIG. 13). Media conditioned by the fibroblasts were analyzed using western blot analysis after 48 hrs.

H-^133SYCETWRTEAPSATGQASSLLGGRLLGQSAASCHHAYIVLCIENSFMT^180-CONH2 (H-SYCETWRTEAPSATGQASSLLGGRLLGQSAASCHHAYIVLCIENSFMT-NH2; cysteine pairing not given here; UniProt P39060 1704-1751, looked up, fragment) [E4, amino acids 133-180 of human endostatin; differs from E3 by the presence of a carboxy-terminal amide]
levels of Egr-1 (Egr-1): reduces | FN and Col1α1 levels/production [1]: significantly suppressed | TGFbeta induced dermal fibrosis, delayed treatment (mouse skin; TGFβ day 1, peptide IP at day 3, harvested day 7): significant decrease | TGF-β-induced dermal fibrosis (dermal thickness) (mouse skin; mice, intradermal, 10 μg/ml with TGF-β 10 ng/ml, one week post-injection): prevented | level of LOX (western blot of conditioned media) (lysyl oxidase (LOX)): significantly reduced

From patent US10709769B2, “Use of endostatin peptides for the treatment of fibrosis” (University of Pittsburgh—Of the Commonwealth System of …, priority 2009, dated 2020)
